Experimental data published in publication PMC7145665, “A pre-catalytic non-covalent step governs DNA polymerase β fidelity” (Nucleic Acids Research, 2019).

Tests used:
[1] = biological target: T1, K289M pol β (Homo sapiens, UniProt P06746, K289M); test: Single turnover polymerase activity (rapid-quench), K289M pol β; assay type: biochemical; settings: for Specificity (kpol/KD) / kpol / Kd: templating base C; for Kd: apparent dNTP dissociation constant; for D KD (i/c): KD(incorrect)/KD(correct) / D kpol (c/i): kpol(correct)/kpol(incorrect): dCTP incorrect, dGTP correct
T1 construct: made in house
Method: (§1) A solution containing 50 nM DNA and 200 nM polymerase was rapidly mixed with varying concentrations of dNTP at 37 °C in 50 mM Tris pH 8.0, 20 mM NaCl, 10 mM MgCl2, 2 mM DTT and 10% glycerol using a KinTek rapid-quench flow apparatus. Reactions were quenched with EDTA and the product was separated from the initial reactant on a 20% polyacrylamide gel containing 8 M urea. Rate of phosphodiester bond formation (kpol) and the apparent dNTP dissociation constant (KD) were extracted as previously reported ([16]). Fidelity was calculated using the catalytic specificity (kpol/KD) for correct (dGTP) and incorrect (dCTP): (kpol/KD)correct/(kpol/KD) incorrect ([37]).

[2] = biological target: T2, WT pol β (Homo sapiens, UniProt P06746); test: Single turnover polymerase activity (rapid-quench), WT pol β; assay type: biochemical; settings: for Specificity (kpol/KD) / kpol / Kd: templating base C; for Kd: apparent dNTP dissociation constant; for D KD (i/c): KD(incorrect)/KD(correct) / D kpol (c/i): kpol(correct)/kpol(incorrect): dCTP incorrect, dGTP correct
T2 construct: made in house
Method: as §1

[3] = set-up: method as in earlier work; settings: pKa4 of the leaving group (β,γ-bridging group modified) ref 19, 22, 23; cited from earlier work
[4] = APC in Control sequence, listed as O
[5] = Control in APC sequence, listed as O

Compound | Specificity (kpol/KD) ([1]; APC in Control sequence) [M⁻¹ s⁻¹] | kpol ([1]; APC in Control sequence) [s⁻¹] | Specificity (kpol/KD) ([1]; APC sequence) [M⁻¹ s⁻¹] | kpol ([1]; APC sequence) [s⁻¹] | Specificity (kpol/KD) ([1]; Control in APC sequence) [M⁻¹ s⁻¹] | kpol ([1]; Control in APC sequence) [s⁻¹] | Specificity (kpol/KD) ([1]; Control sequence) [M⁻¹ s⁻¹] | kpol ([1]; Control sequence) [s⁻¹] | Kd ([1]; APC in Control sequence) [µM] | Kd ([1]; APC sequence) [µM] | Kd ([1]; Control in APC sequence) [µM] | Kd ([1]; Control sequence) [µM] | kpol ([2]; APC in Control sequence) [s⁻¹] | kpol ([2]; APC sequence) [s⁻¹] | kpol ([2]; Control in APC sequence) [s⁻¹] | kpol ([2]; Control sequence) [s⁻¹] | Kd ([2]; APC in Control sequence) [µM] | Kd ([2]; APC sequence) [µM] | Kd ([2]; Control in APC sequence) [µM] | Kd ([2]; Control sequence) [µM] | also measured
Nc1nc2c(ncn2C2CC(O)C(COP(=O)(O)OP(=O)(O)C(Cl)P(=O)(O)O)O2)c(=O)[nH]1 (mixture of isomers) [CHCl] | 140000 | 1.37 | 400000 | 0.80 | 160000 | 1.01 | 410000 | 1.18 | 10 | 2 | 6.5 | 2.85 | 21.7 | 20.3 | 11.9 | 5.90 | 7.5 | 7.8 | 5.6 | 0.5 | Specificity (kpol/KD) ([2]; APC in Control sequence): 2.9e+06 M⁻¹ s⁻¹; Specificity (kpol/KD) ([2]; APC sequence): 2.6e+06 M⁻¹ s⁻¹; Specificity (kpol/KD) ([2]; Control in APC sequence): 2.1e+06 M⁻¹ s⁻¹; Specificity (kpol/KD) ([2]; Control sequence): 1.18e+07 M⁻¹ s⁻¹
Nc1ccn([C@H]2C[C@H](O)[C@@H](COP(=O)(O)OP(=O)(O)OP(=O)(O)O)O2)c(=O)n1 [dCTP] | – | 0.05 | – | 0.05 | – | 0.02 | – | 0.02 | 766 | 267 | 758 | 778 | 0.04 | 0.22 | 0.03 | 0.07 | 389 | 340 | 456 | 1280 | D KD (i/c): KD(incorrect)/KD(correct) ([1]; APC in Control sequence): 511; D KD (i/c): KD(incorrect)/KD(correct) ([1]; APC sequence): 205; D KD (i/c): KD(incorrect)/KD(correct) ([1]; Control in APC sequence): 758; D KD (i/c): KD(incorrect)/KD(correct) ([1]; Control sequence): 778; D KD (i/c): KD(incorrect)/KD(correct) ([2]; APC in Control sequence): 111; D KD (i/c): KD(incorrect)/KD(correct) ([2]; APC sequence): 148; D KD (i/c): KD(incorrect)/KD(correct) ([2]; Control in APC sequence): 268; D KD (i/c): KD(incorrect)/KD(correct) ([2]; Control sequence): 639
Nc1nc2c(ncn2[C@H]2C[C@H](O)[C@@H](COP(=O)(O)OP(=O)(O)OP(=O)(O)O)O2)c(=O)[nH]1 [dGTP] | 1e+06 | 1.50 | 690000 | 0.90 | 1.37e+06 | – | 1.54e+06 | 1.52 | 1.5 | 1.3 | 1 | 1 | 28.5 | 35.5 | 22.1 | 12.6 | 3.5 | 2.3 | 1.7 | 2 | kpol [1, 4]: 1.53 s⁻¹; D kpol (c/i): kpol(correct)/kpol(incorrect) ([1]; APC in Control sequence): 30; D kpol (c/i): kpol(correct)/kpol(incorrect) ([1]; APC sequence): 18; kpol [1, 5]: 1.42 s⁻¹; D kpol (c/i): kpol(correct)/kpol(incorrect) ([1]; Control in APC sequence): 74; D kpol (c/i): kpol(correct)/kpol(incorrect) ([1]; Control sequence): 76; Kd [1, 4]: 1.53 µM; Kd [1, 5]: 1.04 µM; Kd ([1]; Control sequence, listed as O): 0.99 µM; Specificity (kpol/KD) ([2]; APC in Control sequence): 8.1e+06 M⁻¹ s⁻¹; D kpol (c/i): kpol(correct)/kpol(incorrect) ([2]; APC in Control sequence): 750; Specificity (kpol/KD) ([2]; APC sequence): 1.54e+07 M⁻¹ s⁻¹; D kpol (c/i): kpol(correct)/kpol(incorrect) ([2]; APC sequence): 161; Specificity (kpol/KD) ([2]; Control in APC sequence): 1.3e+07 M⁻¹ s⁻¹; D kpol (c/i): kpol(correct)/kpol(incorrect) ([2]; Control in APC sequence): 737; Specificity (kpol/KD) ([2]; Control sequence): 6.3e+06 M⁻¹ s⁻¹; D kpol (c/i): kpol(correct)/kpol(incorrect) ([2]; Control sequence): 194; pKa4 [3]: 8.9
Nc1nc2c(ncn2[C@H]2C[C@H](O)[C@@H](COP(=O)(O)OP(=O)(O)CP(=O)(O)O)O2)c(=O)[nH]1 [CH2] | 250000 | 1.17 | 410000 | 0.70 | 380000 | 0.61 | 260000 | 0.58 | 4.75 | 1.7 | 1.6 | 2.2 | 6.30 | 9.00 | 3.10 | 2.20 | 6.9 | 7.1 | 2.2 | 0.5 | Specificity (kpol/KD) ([2]; APC in Control sequence): 900000 M⁻¹ s⁻¹; Specificity (kpol/KD) ([2]; APC sequence): 1.3e+06 M⁻¹ s⁻¹; Specificity (kpol/KD) ([2]; Control in APC sequence): 1.4e+06 M⁻¹ s⁻¹; Specificity (kpol/KD) ([2]; Control sequence): 4.3e+06 M⁻¹ s⁻¹
Nc1nc2c(ncn2C2CC(O)C(COP(=O)(O)OP(=O)(O)C(F)P(=O)(O)O)O2)c(=O)[nH]1 (mixture of isomers) [CHF] | 1.31e+06 | 1.36 | 560000 | 0.90 | 1.25e+06 | 1.50 | 1.15e+06 | 1.50 | 1.04 | 1.6 | 1.2 | 1.3 | 25.1 | 36.4 | 19.9 | 10.2 | 5.2 | 7.5 | 2.2 | 4.2 | Specificity (kpol/KD) ([2]; APC in Control sequence): 4.8e+06 M⁻¹ s⁻¹; Specificity (kpol/KD) ([2]; APC sequence): 4.9e+06 M⁻¹ s⁻¹; Specificity (kpol/KD) ([2]; Control in APC sequence): 9e+06 M⁻¹ s⁻¹; Specificity (kpol/KD) ([2]; Control sequence): 2.4e+06 M⁻¹ s⁻¹
